The subject of experiment [1] is Fusarium oxysporum. The experiment in a line: in vitro mycelial growth inhibition, modified agar dilution method.
Experiment [2] has as its system covered kernel smut (Sporisorium sorghi). The experiment in a line: field trial, sorghum seed treatment against covered kernel smut. The conditions noted are these: sorghum seed inoculated with covered kernel smut spores; extract 2.0 g/l, Thiram 0.25% (w/w); field conditions. In kind it is in vivo, Sporisorium sorghi on sorghum.
In experiment [3] the test system is loose kernel smut (Sporisorium cruentum). In words: field trial, sorghum seed treatment against loose kernel smut. It counts as in vivo, Sporisorium cruentum on sorghum. The settings on record: sorghum seed inoculated with loose kernel smut spores; extract 2.0 g/l, Thiram 0.25% (w/w); field conditions.
[4] abbreviates: aerial part compounds after P-TLC separation.
Setting [5] is: below soil part compounds after P-TLC separation.

Where “and” joins values, the source holds several entries; their conditions need not be identical. Identical values can stand only once.

As to 2,4-Dithiapentane [Compound A7.1], the “% inhibition (mycelial growth of F. oxysporum)” value (“% inhibition” below) in experiment [1] (setting [4]) was 87%.

Consider `CSCSCSC` [Compound A6.1, 2,4,6-Trithiaheptane], for which the “% inhibition” value in experiment [1] (setting [4]) is listed as 85%.

Take `CSCSSCSC` [Compound B2.2, 2,4,5,7-Tetrathiaoctane]: the “% inhibition” value in experiment [1] (setting [5]) worked out at 87%.

In the case of `CSCSSSCSC` [Compound B3.2, 2,4,5,6,8-Pentathianonane], the “% inhibition” value in experiment [1] (setting [5]) came out at 72%.

In the case of `CN(C)C(=S)SSC(=S)N(C)C` [Thiram], the Yield in experiment [2] is on record as 4.8 ± 0.6a ton ha^−1; in experiment [3] it was 3.9 ± 1.3a ton ha^−1.

Consider Methylthiosulphonate [Compound A7.2], for which the “% inhibition” value in experiment [1] (setting [4]) was 50% and 52%.

Values taken from patent US8697149B2, “Extracts and compounds from “Tulbaghia violacea” and their use as biological plant protecting agents” (Agrarforum AG, priority 2005, dated 2014).
